Reference: ChEMBL document CHEMBL2321717, “Synthesis of novel estrogen receptor antagonists using metal-catalyzed coupling reactions and characterization of their biological activity” (J Med Chem, 2013)
Activity calls are given as the source filed them. No cut-off for these calls is given here.

Key:
Estrogen receptor = molecular target: T1, Estrogen receptor (Homo sapiens, UniProt P03372)
T1 sequence (P03372 whole entry): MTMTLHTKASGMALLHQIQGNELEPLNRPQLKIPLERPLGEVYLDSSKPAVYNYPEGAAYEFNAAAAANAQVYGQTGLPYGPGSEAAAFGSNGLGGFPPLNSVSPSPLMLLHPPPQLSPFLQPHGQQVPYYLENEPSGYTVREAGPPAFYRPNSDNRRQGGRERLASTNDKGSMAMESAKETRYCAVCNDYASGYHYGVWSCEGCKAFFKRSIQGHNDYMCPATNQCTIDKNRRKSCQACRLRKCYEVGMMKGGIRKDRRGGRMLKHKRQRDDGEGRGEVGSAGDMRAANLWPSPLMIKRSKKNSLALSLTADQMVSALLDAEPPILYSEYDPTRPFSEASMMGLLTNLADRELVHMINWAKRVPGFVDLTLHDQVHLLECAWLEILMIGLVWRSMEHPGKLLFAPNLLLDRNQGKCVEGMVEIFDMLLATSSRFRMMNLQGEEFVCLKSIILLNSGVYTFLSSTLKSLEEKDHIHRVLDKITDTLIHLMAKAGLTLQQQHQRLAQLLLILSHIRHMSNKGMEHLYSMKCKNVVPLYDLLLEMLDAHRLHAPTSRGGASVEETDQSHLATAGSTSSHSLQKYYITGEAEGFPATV

[1] = molecular target: Estrogen receptor alpha (Homo sapiens) (UniProt P03372); assay: Agonist activity at ERalpha receptor in human MCF7 cells assessed as stimulation of cell proliferation after 6 days by crystal violet staining method
[2] = molecular target: Estrogen receptor alpha (Homo sapiens) (UniProt P03372); assay: Agonist activity at ERalpha receptor in human HeLa cells assessed as activation of ERalpha-based transcription at 100 nM after 20 to 24 hrs by luciferase reporter gene assay
[3] = molecular target: Estrogen receptor alpha (Homo sapiens) (UniProt P03372); assay: Agonist activity at LBD of ERalpha receptor in human HeLa cells assessed as induction of receptor-SRC-1 interaction at 100 nM after 20 to 24 hrs by luciferase reporter gene assay
MDA-MB-231 [4] = assay: Stimulation of cell proliferation in human ERalpha receptor negative MDA-MB-231 cells after 6 days by crystal violet staining method; assay type: functional, cell-based
MDA-MB-231 [5] = assay: Inhibition of cell proliferation in human ERalpha receptor negative MDA-MB-231 cells after 6 days by crystal violet staining method; assay type: functional, cell-based
Estrogen receptor beta = Estrogen receptor beta (Homo sapiens, UniProt Q92731)
[6] = molecular target: Estrogen receptor alpha (Homo sapiens) (UniProt P03372); assay: Partial agonist activity at ERalpha receptor in human HeLa cells assessed as activation of ERalpha-based transcription at 100 nM after 20 to 24 hrs by luciferase reporter gene assay
[7] = molecular target: Estrogen receptor alpha (Homo sapiens) (UniProt P03372); assay: Agonist activity at ERalpha receptor in human HepG2 cells assessed as activation of ERalpha-based transcription at 100 nM after 20 to 24 hrs by luciferase reporter gene assay
[8] = molecular target: Estrogen receptor alpha (Homo sapiens) (UniProt P03372); assay: Antagonist activity at ERalpha receptor in human HeLa cells assessed as inhibition of E2-induced response after 20 to 24 hrs by luciferase reporter gene assay

Estrogen receptor beta, sequence (Q92731 whole entry): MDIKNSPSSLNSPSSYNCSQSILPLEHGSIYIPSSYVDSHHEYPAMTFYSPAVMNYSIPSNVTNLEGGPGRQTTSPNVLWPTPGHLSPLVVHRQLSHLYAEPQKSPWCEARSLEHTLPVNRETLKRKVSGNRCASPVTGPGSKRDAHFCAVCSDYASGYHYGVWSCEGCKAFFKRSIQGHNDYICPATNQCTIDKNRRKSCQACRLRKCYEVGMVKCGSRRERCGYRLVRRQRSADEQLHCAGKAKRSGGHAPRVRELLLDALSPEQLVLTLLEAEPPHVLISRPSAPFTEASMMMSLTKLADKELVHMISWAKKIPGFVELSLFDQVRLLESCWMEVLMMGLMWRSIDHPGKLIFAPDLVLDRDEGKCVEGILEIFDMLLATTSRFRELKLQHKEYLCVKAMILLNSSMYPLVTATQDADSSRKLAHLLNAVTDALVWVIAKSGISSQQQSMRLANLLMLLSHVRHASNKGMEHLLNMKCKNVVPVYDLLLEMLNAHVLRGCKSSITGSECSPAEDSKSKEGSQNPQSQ

SMILES	IC50 (Estrogen receptor)	Activity [1]	Activity [2]	Activity [3]	IC50 (Estrogen receptor beta)	Activity [8]	Activity (MDA-MB-231 [4])	Activity (MDA-MB-231 [5])	Activity [6]	Activity [7]
CC(C)(C)OC(=O)N1CCN(c2ccc(C#CCCCC[C@@H]3Cc4cc(O)ccc4[C@H]4CC[C@]5(C)[C@@H](O)CC[C@H]5[C@H]34)cc2)CC1	0.567 µM	–	Active	–	0.436 µM	–	inactive	inactive	Active	–
C[C@]12CC[C@@H]3c4ccc(O)cc4C[C@@H](CCCCC#Cc4ccc(-c5ccno5)cc4)[C@H]3[C@@H]1CC[C@@H]2O	–	–	Active	–	–	–	inactive	inactive	Active	50%
C[C@]12CC[C@@H]3c4ccc(O)cc4C[C@@H](CCCCc4cn(CC5COc6ccccc6O5)nn4)[C@H]3[C@@H]1CC[C@@H]2O (some centres not stated)	0.0244 µM	–	–	–	0.0412 µM	Active	–	–	–	50%
CCOC(=O)C(Cc1ccc(C#CCCCC[C@@H]2Cc3cc(O)ccc3[C@H]3CC[C@]4(C)[C@@H](O)CC[C@H]4[C@H]23)cc1)C(=O)OCC	0.126 µM	Active	Active	Active	0.151 µM	–	–	–	–	–

Now from value to compound, other results behind:

IC50 (Estrogen receptor)	Activity [1]	Activity [2]	Activity [3]	IC50 (Estrogen receptor beta)	Activity [8]	SMILES	Activity (MDA-MB-231 [4])	Activity (MDA-MB-231 [5])	Activity [6]	Activity [7]
0.176 µM	Active	Active	Active	–	–	C[C@]12CC[C@@H]3c4ccc(O)cc4C[C@@H](CCCCC#Cc4ccc5ccccc5c4)[C@H]3[C@@H]1CC[C@@H]2O	–	–	–	–
0.0283 µM	Active	Active	Active	–	–	C[C@]12CC[C@@H]3c4ccc(O)cc4C[C@@H](CCCCC#Cc4ccc(-n5cccc5)cc4)[C@H]3[C@@H]1CC[C@@H]2O	–	–	–	–
0.638 µM	Active	Active	Active	–	–	C[C@]12CC[C@@H]3c4ccc(O)cc4C[C@@H](CCCCC#Cc4ccc(CN5CCCCC5)cc4)[C@H]3[C@@H]1CC[C@@H]2O	–	–	–	–
0.0965 µM	Active	Active	Active	0.185 µM	–	CCOC(=O)CC(=O)c1ccc(C#CCCCC[C@@H]2Cc3cc(O)ccc3[C@H]3CC[C@]4(C)[C@@H](O)CC[C@H]4[C@H]23)cc1	–	–	–	–
